Here are results for nine compounds from patent US12371454B2, “Cyclic peptide compound having Kras inhibitory action” (priority 2019, dated 2025).

A word on the IC50: it is the concentration that inhibits the measured activity by half.

Starred links: 1 amine or outer side, 2 acyl side, 3 side chain; linkers in the order of their positions; H or OH if unused. Positions of bridges follow the written chain, without caps; N, C: chain ends. Non-standard residues stand in square brackets, D forms with d. Residues, ends and D or L forms follow the SMILES beside them. *: point of attachment. hPhe(3-Cl-4-CF3) = N[C@@H](CCc1ccc(C(F)(F)F)c(Cl)c1)C(=O)O; NMePhe(3,4-F2) = CN[C@@H](Cc1ccc(F)c(F)c1)C(=O)O; Phe(2-CF3) = N[C@@H](Cc1ccccc1C(F)(F)F)C(=O)O; NMePhe(4-Me) = CN[C@@H](Cc1ccc(C)cc1)C(=O)O; NMePhe(4-F) = CN[C@@H](Cc1ccc(F)cc1)C(=O)O; NMedβ3hAla = C[C@H](CC(=O)[*:2])N(C)[*:1]; NMePhe(2-F) = CN[C@@H](Cc1ccccc1F)C(=O)O; Phe(3-I) = N[C@@H](Cc1cccc(I)c1)C(=O)O; NMeCha = CN[C@@H](CC1CCCCC1)C(=O)O; NMeGly(cPr) = CN[C@H](C(=O)O)C1CC1; NMeF = CN[C@@H](Cc1ccccc1)C(=O)O; NMeI = CC[C@H](C)[C@H](NC)C(=O)O; NMeD = CN[C@@H](CC(=O)O)C(=O)O; CH2CONHtBu = CC(C)(C)NC(=O)C*; NMeL = CN[C@@H](CC(C)C)C(=O)O; NMeV = CN[C@H](C(=O)O)C(C)C; d(β3hA) = C[C@@H](N)CC(=O)O; NMeS = CN[C@@H](CO)C(=O)O; NMeA = CN[C@@H](C)C(=O)O; NMeAib = CNC(C)(C)C(=O)O; Piperidide = C1CCN(*)CC1; dNMeA = CN[C@H](C)C(=O)O; Ac5c = NC1(C(=O)O)CCCC1; Aze = O=C(O)[C@@H]1CCN1; Nleu = CC(C)CNCC(=O)O; Aib = CC(C)(N)C(=O)O; Isopentyl = CC(C)CC*; NEtG = CCNCC(=O)O; Sar = CNCC(=O)O

The assay deals with T1, Kras and SOS1 (biotin-tagged human Kras loaded with GDP, His-tagged human SOS1) (Homo sapiens, UniProt P01116, G12D).
T1 construct: made in house; host or cells: E. coli (stated for Kras only)
T1 sequence (P01116 1-188 isoform P01116-2 G12D): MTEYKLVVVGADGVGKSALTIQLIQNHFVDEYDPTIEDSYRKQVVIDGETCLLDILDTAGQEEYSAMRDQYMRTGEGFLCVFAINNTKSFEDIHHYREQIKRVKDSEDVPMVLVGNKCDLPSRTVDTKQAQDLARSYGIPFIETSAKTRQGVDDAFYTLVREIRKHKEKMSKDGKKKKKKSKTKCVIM
Briefly: Protein-protein interaction inhibition between Kras and SOS1 (KrasGl2D-SOS PPI) using AlphaScreen. The class given is binding. Particulars: AlphaScreen; biotin-tagged human Kras loaded with GDP, His-tagged human SOS1; read-out: KRAS G12D-SOS PPI IC50. The gist of the method: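 AlphaScreen format: Ni donor beads capture His-SOS1, streptavidin acceptor beads capture biotinylated Kras (E. coli-expressed, GDP-loaded post-purification). Excite 680 nm, read 520-620 nm.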
Regarding `CC[C@H](C)[C@@H]1NC(=O)[C@H](C2CC2)N(C)C(=O)C[C@@H](C)NC(=O)[C@H](C(C)C)N(C)C(=O)C2(CCCC2)NC(=O)[C@@H]2CCCN2C(=O)[C@H](CCc2ccc(C(F)(F)F)c(Cl)c2)NC(=O)CN(C)C(=O)[C@H](CC2CCCCC2)N(C)C(=O)[C@@H]2CCN2C(=O)[C@H](C)N(C)C1=O` [Compound 565] (cyclo([Ac5c][NMeV][d(β3hA)][NMeGly(cPr)]I[NMeA][Aze][NMeCha][Sar][hPhe(3-Cl-4-CF3)]P)), the IC50 came to 55 nM. In the case of `CC[C@H](C)[C@@H]1NC(=O)[C@H](CC(C)C)N(C)C(=O)C[C@@H](C)NC(=O)[C@H](C(C)C)N(C)C(=O)C2(CCCC2)NC(=O)[C@@H]2CCCN2C(=O)[C@H](CCc2ccc(C(F)(F)F)c(Cl)c2)NC(=O)CN(C)C(=O)[C@H](CC2CCCCC2)N(C)C(=O)CN(C)C(=O)CN(CC(C)C)C1=O` [Compound 970] (cyclo([Ac5c][NMeV][d(β3hA)][NMeL]I[Nleu][Sar][NMeCha][Sar][hPhe(3-Cl-4-CF3)]P)) it was 250 nM; in that of `CC[C@H](C)[C@@H]1NC(=O)[C@H](C)N(C)C(=O)C[C@@H](C(=O)N2CCCCC2)N(C)C(=O)[C@H]([C@@H](C)CC)N(C)C(=O)C2(CCCC2)NC(=O)[C@H](Cc2ccc(F)cc2)N(C)C(=O)[C@H](CCc2ccc(C(F)(F)F)c(Cl)c2)NC(=O)CN(C)C(=O)[C@H](Cc2ccc(C)cc2)N(C)C(=O)[C@@H]2CCN2C(=O)[C@H](C)N(C)C1=O` [Compound 1885] ([NMeA]I[NMeA][Aze][NMePhe(4-Me)][Sar][hPhe(3-Cl-4-CF3)][NMePhe(4-F)][Ac5c][NMeI][NMeD]-Piperidide; lactam N-11), 32 nM.

Turning to `CC[C@H](C)[C@@H]1NC(=O)[C@H](CC(C)C)N(C)C(=O)C[C@@H](C)N(C)C(=O)[C@H](CC(C)C)NC(=O)C(C)(C)N(C)C(=O)[C@H](CC(C)C)NC(=O)[C@H](CCc2ccc(C(F)(F)F)c(Cl)c2)NC(=O)[C@@H](C)N(C)C(=O)[C@H](CC2CCCCC2)N(C)C(=O)[C@@H]2CCN2C(=O)CN(C)C1=O` [Compound 1400] (cyclo([Aze][NMeCha][dNMeA][hPhe(3-Cl-4-CF3)]L[NMeAib]L[NMedβ3hAla][NMeL]I[Sar])), the IC50 was found to be 210 nM. Take `CC[C@H](C)[C@@H]1NC(=O)[C@H](CC(C)C)N(C)C(=O)C[C@@H](C)NC(=O)[C@H](C(C)C)N(C)C(=O)C2(CCCC2)NC(=O)[C@@H]2CCCN2C(=O)[C@H](CCc2ccc(C(F)(F)F)c(Cl)c2)NC(=O)CN(C)C(=O)[C@H](Cc2ccccc2F)N(C)C(=O)CN(C)C(=O)CN(C)C1=O` [Compound 1585] (cyclo([Ac5c][NMeV][d(β3hA)][NMeL]I[Sar][Sar][NMePhe(2-F)][Sar][hPhe(3-Cl-4-CF3)]P)): the IC50 was 43 nM.

Turning to `CC[C@H](C)[C@@H]1NC(=O)[C@H](CC(C)C)N(C)C(=O)C[C@@H](C)NC(=O)[C@H](CC(C)C)N(C)C(=O)C(C)(C)NC(=O)[C@H](COCC(=O)NC(C)(C)C)N(C)C(=O)[C@H](CCc2ccc(C(F)(F)F)c(Cl)c2)NC(=O)CN(C)C(=O)[C@H](COCCC(C)C)N(C)C(=O)[C@@H]2CCN2C(=O)CN(CC)C1=O` [Compound 1513] (cyclo([Aib][NMeL][d(β3hA)][NMeL]I[NEtG][Aze][NMeS](Isopentyl)[Sar][hPhe(3-Cl-4-CF3)][NMeS](CH2CONHtBu))), the IC50 is 270 nM. In the case of `CC[C@H](C)[C@@H]1NC(=O)[C@H](CC(C)C)N(C)C(=O)C[C@@H](C(=O)N2CCCCC2)N(C)C(=O)[C@H](CC(C)C)NC(=O)C(C)(C)N(C)C(=O)[C@H](Cc2ccccc2C(F)(F)F)NC(=O)[C@H](Cc2cccc(I)c2)NC(=O)CN(C)C(=O)[C@H](Cc2ccc(C)cc2)N(C)C(=O)CN(C)C(=O)CN(C)C1=O` [Compound 1127] ([NMeL]I[Sar][Sar][NMePhe(4-Me)][Sar][Phe(3-I)][Phe(2-CF3)][NMeAib]L[NMeD]-Piperidide; lactam N-11), the IC50 worked out at 260 nM. In the case of `CC[C@H](C)[C@@H]1NC(=O)[C@H](C)N(C)C(=O)C[C@@H](C(=O)N(C)C)N(C)C(=O)[C@H]([C@@H](C)CC)N(C)C(=O)C2(CCCC2)NC(=O)[C@H](Cc2ccc(F)c(F)c2)N(C)C(=O)[C@H](CCc2ccc(C(F)(F)F)c(Cl)c2)NC(=O)CN(C)C(=O)[C@H](Cc2ccc(C)cc2)N(C)C(=O)[C@@H]2CCN2C(=O)[C@H](C)N(C)C1=O` [Compound 1878] ([NMeA]I[NMeA][Aze][NMePhe(4-Me)][Sar][hPhe(3-Cl-4-CF3)][NMePhe(3,4-F2)][Ac5c][NMeI][NMeD]-NMe2; lactam N-11) it was 8.8 nM; in that of `CC[C@H](C)[C@@H]1NC(=O)[C@H](C)N(C)C(=O)C[C@@H](C)NC(=O)[C@H](C(C)C)N(C)C(=O)C2(CCCC2)NC(=O)[C@@H]2CCCN2C(=O)[C@H](CCc2ccc(C(F)(F)F)c(Cl)c2)NC(=O)[C@@H](C)N(C)C(=O)[C@H](CC2CCCCC2)N(C)C(=O)[C@@H]2CCN2C(=O)[C@H](Cc2ccccc2)N(C)C1=O` [Compound 2019] (cyclo([Ac5c][NMeV][d(β3hA)][NMeA]I[NMeF][Aze][NMeCha][dNMeA][hPhe(3-Cl-4-CF3)]P)), 110 nM.
